Columns and labels:
Type in all cases: in vivo
Puccinia recondita = experiment: Curative activity against brown rust of wheat caused by Puccinia recondita; conditions: single active compound, wheat seedlings, sprayed 1 day after inoculation, read after 7 days, efficacy in % of untreated control (Abbot)
Procedure: The active compounds, separately or jointly, were prepared as a stock solution comprising 25 mg of active compound which was made up to 10 ml using a mixture of acetone and/or dimethyl sulfoxide and the emulsifier Uniperol® EL (wetting agent having an emulsifying and dispersing action based on ethoxylated alkylphenols) in a ratio by volume of solvent/emulsifier of 99:1. The mixture was then made up to 100 ml with water. This stock solution was diluted with the solvent/emulsifier/water mixture described to give the concentration of active compound stated below. Alternatively, the active compounds triticonazole and pyraclostrobin were used as a commercial finished formulation and diluted with water to the stated active compound concentrations. The visually determined percentages of infected leaf areas were converted into efficacies in % of the untreated control: The efficacy (E) is calculated as follows using Abbot's formula: E=(1−α/β)·100 α corresponds to the fungicidal infection of the treated plants in % and β corresponds to the fungicidal infection of the untreated (control) plants in % An efficacy of 0 means that the infection level of the treated plants corresponds to that of the untreated control plants; an efficacy of 100 means that the treated plants were not infected. The expected efficacies of active compound combinations were determined using Colby's formula (Colby, S. R. “Calculating synergistic and antagonistic responses of herbicide combinations”, Weeds, 15, pp. 20-22, 1967) and compared with the observed efficacies. E=x+y−x·y/100 Colby's formula • E expected efficacy, expressed in % of the untreated control, when using the mixture of the active compounds A and B at the concentrations a and b; • x efficacy, expressed in % of the untreated control, when using the active compound A at the concentration a; • y efficacy, expressed in % of the untreated control, when using the active compound B at the concentration b. […] The extent of the rust fungus development on the leaves was then determined.

Botrytis cinerea = experiment: Activity against gray mold on bell pepper leaves caused by Botrytis cinerea, 1 day protective application; conditions: single active compound, assessed after 5 days
Procedure: The active compounds, separately or jointly, were prepared as a stock solution comprising 25 mg of active compound which was made up to 10 ml using a mixture of acetone and/or dimethyl sulfoxide and the emulsifier Uniperol® EL (wetting agent having an emulsifying and dispersing action based on ethoxylated alkylphenols) in a ratio by volume of solvent/emulsifier of 99:1. The mixture was then made up to 100 ml with water. This stock solution was diluted with the solvent/emulsifier/water mixture described to give the concentration of active compound stated below. Alternatively, the active compounds triticonazole and pyraclostrobin were used as a commercial finished formulation and diluted with water to the stated active compound concentrations. The visually determined percentages of infected leaf areas were converted into efficacies in % of the untreated control: The efficacy (E) is calculated as follows using Abbot's formula: E=(1−α/β)·100 α corresponds to the fungicidal infection of the treated plants in % and β corresponds to the fungicidal infection of the untreated (control) plants in % An efficacy of 0 means that the infection level of the treated plants corresponds to that of the untreated control plants; an efficacy of 100 means that the treated plants were not infected. The expected efficacies of active compound combinations were determined using Colby's formula (Colby, S. R. “Calculating synergistic and antagonistic responses of herbicide combinations”, Weeds, 15, pp. 20-22, 1967) and compared with the observed efficacies. E=x+y−x·y/100 Colby's formula • E expected efficacy, expressed in % of the untreated control, when using the mixture of the active compounds A and B at the concentrations a and b; • x efficacy, expressed in % of the untreated control, when using the active compound A at the concentration a; • y efficacy, expressed in % of the untreated control, when using the active compound B at the concentration b. […] After 5 days, the extent of the fungal infection on the leaves could be determined visually in %.

Alternaria solani = experiment: Activity against early blight of tomato caused by Alternaria solani (protective spray, potted tomato plants); conditions: single active compound, 16 mg/l; tomato leaves, sprayed 1 day before infection, read after 5 days; efficacy in % of untreated control (Abbot)
Procedure: The active compounds, separately or jointly, were prepared as a stock solution comprising 25 mg of active compound which was made up to 10 ml using a mixture of acetone and/or dimethyl sulfoxide and the emulsifier Uniperol® EL (wetting agent having an emulsifying and dispersing action based on ethoxylated alkylphenols) in a ratio by volume of solvent/emulsifier of 99:1. The mixture was then made up to 100 ml with water. This stock solution was diluted with the solvent/emulsifier/water mixture described to give the concentration of active compound stated below. […] The visually determined percentages of infected leaf areas were converted into efficacies in % of the untreated control: The efficacy (E) is calculated as follows using Abbot's formula: E=(1−α/β)·100 α corresponds to the fungicidal infection of the treated plants in % and β corresponds to the fungicidal infection of the untreated (control) plants in % An efficacy of 0 means that the infection level of the treated plants corresponds to that of the untreated control plants; an efficacy of 100 means that the treated plants were not infected. The expected efficacies of active compound combinations were determined using Colby's formula (Colby, S. R. “Calculating synergistic and antagonistic responses of herbicide combinations”, Weeds, 15, pp. 20-22, 1967) and compared with the observed efficacies. […]

COc1ccc(C(=CC(=O)N2CCOCC2)c2ccc(Cl)cc2)cc1OC [Dimethomorph, 3-(4-chlorophenyl)-3-(3,4-dimethoxyphenyl)-1-morpholin-4-yl-propenone]
Observed activity (% infection) (Puccinia recondita; 63 mg/l): 0%
Observed activity (% infection) (Botrytis cinerea; 63 mg/l): 0%

COc1cc(C)c(C(=O)c2c(OC)ccc(Br)c2C)c(OC)c1OC [Metrafenone, 3′-bromo-2,3,4,6′-tetramethoxy-2′,6-dimethylbenzophenone]
Observed activity (% infection) (Puccinia recondita; 63 mg/l): 0%
Observed activity (% infection) (Botrytis cinerea; 63 mg/l): 0%

CC1(C)CC/C(=C\c2ccc(Cl)cc2)C1(O)Cn1cncn1 (stereo not shown) [Triticonazole, (5E)-5-[(4-chlorophenyl)methylene]-2,2-dimethyl-1-(1H-1,2,4-triazol-1-ylmethyl)cyclopentanol]
Observed activity (% infection) (Puccinia recondita; 0.25 mg/l): 0%
Observed efficacy (% of untreated control, Abbott) (Alternaria solani): 20%

COC(=O)N(OC)c1ccccc1COc1ccn(-c2ccc(Cl)cc2)n1 [pyraclostrobin]
Observed activity (% infection) (Botrytis cinerea; 16 mg/l): 11%

— patent publication US20080255107A1, “Fungicidal Mixtures Comprising N-[2-(Haloalk(Enyl)Oxy)Phenyl]Carboxamides” (BASF SE, priority 2005, published 2008)
